Results on two compounds are retold here after patent US20200237766A1, “PKM2 ACTIVATORS IN COMBINATION WITH REACTIVE OXYGEN SPECIES FOR TREATMENT OF CANCER” (TOLERO PHARMACEUTICALS, INC., priority 2017, published 2020).

The subject of series [1] is A549 cells. In words: Cell-titer-Glo cell viability, A549 cells. It is filed as cell-based, human. Particulars: A549 cells, Compound 91 at 4 μM, Cell-titer-Glo.
The next series concerns Panc1 cells. In words: Cell-titer-Glo cell viability, Panc1 cells. Type of series: cell-based. To be noted: Compound 91 at 4 μM. The method, then:
A549 and Pancl cells were plated using 384-well plates at a density of 1,200 cells per well. Cells were plated in RPMI media and allowed to adhere for 24 hours at 37° C. […] Cells were also treated with Compound 91 alone as a control. Cell viability was determined according to the Cell-titer-Glo assay kit and protocol from Promega Biosciences, LLC (Madison, Wis.).
A549 and Panc1 cells were plated according to the procedure described in Example 1. Cells were treated using a concentration gradient of rapamycin (FIGS. 5A-B) or Vosaroxin (a TOPOII poison; FIG. 5C), both in the presence and absence of Compound 91 at a concentration of 4 μM in replicates of 7 per condition. Cell viability was determined using the Cell-titer-Glo assay kit according to the procedure described in the examples above.

The nature of series [2]: Body weight in A549 xenograft study (Example 7). Type of series: in vivo. To be noted: combination of doxorubicin 2 mg/kg every 2 days and Compound 91 200 mg/kg every day, athymic nude mice. How it is done:
A xenograph study was performed using A549 lung cancer cells to interrogate the in vivo synergy between a representative ROS-producing anti-cancer drug and a PKM2 activator. Mice (6-8 week old female athymic nude) were housed under standard conditions, and allowed food and water ad libitum and injected with 1×10^7 A549 cells per mouse. […] Compound 91 was administered orally at a concentration of 200 mg/kg every day.
(§1) Tumor volume and body weights were measured and recorded twice weekly (FIGS. 7A and 7B, respectively). Upon completion of the study, mice were euthanized and tumor tissues were harvested.

Another series deals with A549 lung cancer cells. In words: A549 xenograft study in athymic nude mice (Example 7), tumor volume. It is filed as in vivo. To be noted: combination of doxorubicin 2 mg/kg every 2 days and Compound 91 200 mg/kg every day. The method, then: A xenograph study was performed using A549 lung cancer cells to interrogate the in vivo synergy between a representative ROS-producing anti-cancer drug and a PKM2 activator. Mice (6-8 week old female athymic nude) were housed under standard conditions, and allowed food and water ad libitum and injected with 1×10^7 A549 cells per mouse.
as §1

Series [3] relates to A549 cells. Briefly: GSH-Glo glutathione level assay in A549 cells. It is filed as cell-based, human. To be noted: treated 48 hours, even at concentrations as low as 0.1 μM. How it is done: Cells were treated for 48 hours, and then glutathione levels were determined using a GSH-Glo assay kit and procedure from Promega.

In the case of `CN[C@H]1CN(c2ccc3c(=O)c(C(=O)O)cn(-c4nccs4)c3n2)C[C@@H]1OC` [Vosaroxin], the “cell viability: activity in presence vs absence of Compound 91” value in the series with A549 cells [1] and in the series on Panc1 cells was “no significant change” throughout.

As for `Nc1cccc(F)c1CN(CCC1CCS(=O)(=O)CC1)C(=O)c1cc(C(F)(F)F)n[nH]1` [Compound 91], in series [2], the body weight result was “no significant body weight reduction or fluctuation”. For the same compound, in the series with A549 lung cancer cells, the tumor volume entry was “best reduction of tumor volume”. For the same compound, the “glutathione levels (GSH-Glo)” value in the series with A549 cells [3] was “decreased levels of glutathione”.
